“Also recorded” adds a separate entry of the source.
Experiments:
S1PRs = details: all of the S1PRs; cited from earlier work
IL-6 = experiment: Quantitative PCR of hard palate mucosa around the injury, IL-6; assay type: in vivo, mice; details: vs blank scaffold
Description: (§1) FTY720 is a sphingosine-1-phosphate receptor analogue that is linked to LY6C^lo (anti-inflammatory) monocytes and M2 (Pro-regenerative) macrophages attraction. According to one embodiment, for analysis of lymphocyte populations, cells are stained for flow cytometry with one or more of the following antibodies: Zombie NIR™ Fixable Viability Kit (Biolegend), PE anti-mouse MERTK (Mer) Antibody (Biolegend), Brilliant Violet 711™ anti-mouse CD64 (FcγRI) Antibody (Biolegend), Brilliant Violet 510™ anti-mouse Ly-6C Antibody (Biolegend), FITC anti-mouse CD206 (MMR) Antibody (Biolegend), Brilliant Violet 421™ anti-mouse/human CD11b Antibody (Biolegend). […]
(§2) According to one embodiment, during oral cavity wound healing following injury, there is predominantly a pro-inflammatory lymphocytic infiltrate. […] According to one embodiment, the IL assessment is performed in samples with and without scaffold placement, and includes using quantitative PCR of hard palate mucosa at day 3, 5, and 7 and comparing results to controls. In at least one embodiment, serum is collected and evaluated for levels of IL1, IL6, IL10 and VEGF using ELIZA to determine if there are systemic alterations in inflammatory and vasculogenic gene regulation and compared to uninjured controls. […]

M2 macrophages = experiment: Flow cytometry of hard palate mucosa in ONF model, macrophages; assay type: in vivo, mice
Description: as §1, with “(Biolegend). In various embodiments, to detect and sort for anti-inflammatory LY6C^lo monocytes and M2 Macrophages, real-time polymerase chain reaction (PCR) analysis is performed with iQ SYBR green supermix (Bio-Rad, 1708882) in a Bio-Rad iCycler for 40 cycles to assess the expression of inflammatory IL-1, IL-4 and IL-6 and anti-inflammatory IL-10 and transcription factor Sox2, which is related to keratinocyte migration and proliferation.” for “(Biolegend).”
In various embodiments, flow cytometry of inflammatory cells is performed to characterize monocyte and macrophage phenotypes. […] In various embodiments, cells are stained with cell phenotyping antibodies in a 1:1 volume ratio of 3% FBS and Brilliant Stain Buffer (BD Biosciences) according to standard procedures and analyzed on a FACS AriaIIIu flow cytometer (BD Biosciences). […] According to one embodiment, 30 μL of Accucheck Counting Beads (Invitrogen) are added per sample for absolute quantification of cell populations.
(§3) For analysis of lymphocyte populations, oral mucosal tissues were harvested and digested in 1 mg/ml collagenase I (Sigma) for 45 minutes at 37 degrees Celsius. […] Cells were then stained with cell phenotyping antibodies in a 1:1 volume ratio of 3% FBS and Brilliant Stain Buffer (BD Biosciences) according to standard procedures and analyzed on a FACS AriaIIIu flow cytometer (BD Biosciences). […]

cutaneous wound = experiment: Cutaneous wound healing / dorsal skinfold window chamber model; assay type: in vivo
Description: In one example, FTY720 and FTY720-P are released from 1 mm diameter thin films in a cutaneous dorsal skinfold window chamber for 3 days to investigate the in vivo gradient produced by H-ME PLGA film release of S1P receptor targeting compounds.
Multiple approaches can be used to improve the recruitment of the pro-regenerative monocytes and macrophages to cutaneous wounds.

IL-1 = experiment: Quantitative PCR of hard palate mucosa around the injury, IL-1; assay type: in vivo, mice; details: vs blank scaffold
Description: as §1, §2

IL-10 = experiment: Quantitative PCR of hard palate mucosa around the injury, IL-10; assay type: in vivo, mice; details: vs blank scaffold
Description: as §1, §2

LY6C^lo monocytes = experiment: Flow cytometry of hard palate mucosa in ONF model, monocytes; assay type: in vivo, mice
Description: FTY720 is a sphingosine-1-phosphate receptor analogue that is linked to LY6C^lo (anti-inflammatory) monocytes and M2 (Pro-regenerative) macrophages attraction. According to one embodiment, for analysis of lymphocyte populations, cells are stained for flow cytometry with one or more of the following antibodies: Zombie NIR™ Fixable Viability Kit (Biolegend), PE anti-mouse MERTK (Mer) Antibody (Biolegend), Brilliant Violet 711™ anti-mouse CD64 (FcγRI) Antibody (Biolegend), Brilliant Violet 510™ anti-mouse Ly-6C Antibody (Biolegend), FITC anti-mouse CD206 (MMR) Antibody (Biolegend), Brilliant Violet 421™ anti-mouse/human CD11b Antibody (Biolegend). In various embodiments, to detect and sort for anti-inflammatory LY6C^lo monocytes and M2 Macrophages, real-time polymerase chain reaction (PCR) analysis is performed with iQ SYBR green supermix (Bio-Rad, 1708882) in a Bio-Rad iCycler for 40 cycles to assess the expression of inflammatory IL-1, IL-4 and IL-6 and anti-inflammatory IL-10 and transcription factor Sox2, which is related to keratinocyte migration and proliferation. In one or more embodiments, slides are stained for H&E and Phospho-histone 3 to assess keratinocytes undergoing mitosis.
In various embodiments, flow cytometry of inflammatory cells is performed to characterize monocyte and macrophage phenotypes. In one or more embodiments, for analysis of lymphocyte populations, hard palate mucosa is harvested and digested in 1 mg/ml collagenase I (Sigma) for 45 minutes at 37 degrees Celsius. In at least one embodiment, the digested mucosa is filtered through a cell strainer to obtain a single cell suspension. According to one embodiment, the single-cell suspensions are stained for live cells using either Zombie Green or Zombie NIR (Biolegend) dyes in cell-culture grade PBS per manufacturer instructions. In various embodiments, cells are stained with cell phenotyping antibodies in a 1:1 volume ratio of 3% FBS and Brilliant Stain Buffer (BD Biosciences) according to standard procedures and analyzed on a FACS AriaIIIu flow cytometer (BD Biosciences). […] According to one embodiment, 30 μL of Accucheck Counting Beads (Invitrogen) are added per sample for absolute quantification of cell populations.
as §3

[1] = tested on: oronasal fistula (ONF) in the hard palate; experiment: Murine oronasal fistula (ONF) model, wound healing after scaffold implantation; assay type: in vivo, mice
Description: To understand the wound healing characteristics of the oral mucosa, the present disclosure provides an ONF model utilizing thermal injury for creating the ONF. In at least one embodiment, the ONF model permits study of the cellular and inflammatory infiltration to the wound site during the healing process. An exemplary analysis of FTY720 effects on ONF healing in the model includes, but is not limited to: 1) forming an ONF in each of a plurality of samples (e.g., mice); 2) dividing the mice into 3 groups, a no implant group, a group where blank nanofiber scaffolds are implanted, and a group where uniaxially-aligned nanofiber scaffolds with FTY720 are implanted; and 3) evaluating ONF healing results at predetermined time points (e.g., day 3, day 5, day 7, etc.).
To produce a Murine ONF model, 12 week old C57/b6 mice are obtained (for example from Jackson Laboratories) and anesthetized using intraperitoneal ketamine. According to one embodiment, the oral cavity is accessed using a retractor while the mice are spontaneously breathing. […] The time points include 0, 3, 5, and 7 days and healing of the ONF is assessed using histomorphometry while functional outcomes are measured evaluating for poor oral intake measured by body weight loss, dehydration (serum sodium using an ELIZA assay), and eventual death (Kaplan Meir curve).
After staining the slides, Hamamatsu NanoZoomer 2.0 HT processor was used to scan slides and they were then analyzed in Hamamatsu NDP.view2 Viewing Software. […]
To determine if a targeted auto-therapy induction of pro-regenerative monocytes and macrophages would lead to improved ONF healing, the delivery of FTY-720, a sphingosine analog that increases pro-regenerative monocytes and macrophages was tested via a nanofiber scaffold. […] With reference to FIGS. 13A-D, to examine the effects of the FTY-720 on the host inflammatory response, quantitative polymerase chain reaction (PCR) on the mucosal tissue surrounding the injury was performed and determined that IL-1 was decreased in the presence of FTY-720 whereas IL-6 and IL-10 were increased.

[2] = In vitro release of FTY720 from controlled-release polymers; assay type: physicochemical; details: acid-capped L-A and methyl-ester capped H-ME polymers, incubation in vitro
Description: In one or more embodiments, the S1PR agonist FTY720 is differentially released from polymers for controlled release (“acid-capped” L-A and “methyl-ester capped” H-ME polymers). […] According to one embodiment, an immunoregenerative approach is executed to control how M1 to M2 are spatially and temporally regulated by recruitment of anti-inflammatory monocytes (AM). In at least one embodiment, the immunoregenerative approach includes determining how localized administration of FTY720 is compartmentalized in vivo. In one or more embodiments, the phosphorylated form of the drug FTY720-P is primarily responsible for receptor mediated signaling and has much lower threshold effective concentrations than FTY720 at all of the S1PRs. In at least one embodiment, similar to S1P, FTY720-P must be dephosphorylated by LPP3 to enter the cell. According to one embodiment, once inside the cell, FTY720 can be phosphorylated by sphingosine kinase 2 (SPHK2) and subsequently exported from the cell by Spns2. In various embodiments, the ability of FTY720 to be reversibly phosphorylated allows it to undergo multiple cycles of signaling in the tissue, contributing to a sustained gradient. According to one embodiment, the regulatory roles of local gradients of FTY720 and FTY720-P are differentiable.

[3] = tested on: palatine and surrounding hard palate bones; experiment: μCT evaluation of hard palate bones after ONF creation; assay type: in vivo, mice; details: following ONF creation
Experimental: According to one embodiment, similar to humans, the critical wound healing time point is immediately following hard palate injury (or surgery) and fistula healing is unlikely after this critical time period. To assess the critical wound healing time, in at least one embodiment, ONFs are created in Murine models and standard histomorphologic evaluation of the mice following injury at day 0, 3, 5, 7, and 14 days is performed. According to one embodiment, the specimens are assessed using H+E staining of coronal sections in […] (10 male and 10 female) each to evaluate: the width of the ONF, the presence or absence of inflammatory infiltrate at the wound edges, the formation of a basement membrane in the healing areas (using type IV collagen and laminin staining). In at least one embodiment, the exposure of the maxillary and palatine bones as well as the surrounding maxillary structures are evaluated using micro-computed tomography (μCT) imaging.
According to one embodiment, ONF area width is measured at each of the time points and compared to controls. […] In various embodiments, to measure the proliferative and apoptosis response following oral injury, proliferation and apoptosis are assessed. […]

[4] = cutaneous wound, local delivery

Structure (SMILES) | threshold effective concentrations relative to FTY720 (S1PRs) | IL-6 expression (IL-6) | M2 Macrophages % of total cells (M2 macrophages; day 3, flow cytometry, implanted scaffold, blank 1.4±0.2%) [%] | M2 Macrophages % of Macrophages (M2 macrophages; day 3, flow cytometry, implanted scaffold, blank 34.7±6.4%) [%] | migration of M2 macrophages into a wound bed (M2 macrophages; e.g. in the hard palate, no time point) | migration of M2 macrophages into a wound bed (cutaneous wound; cutaneous wound context) | cutaneous wound healing (cutaneous wound; [4]) | recruitment of anti-inflammatory (AM, Ly6C^lo) monocytes (cutaneous wound; [4]) | vascularity (cutaneous wound; cutaneous wound, thin film release, 3 days) | IL-1 expression (IL-1) | IL-10 expression (IL-10) | LY6C^lo % of total CD11B+ cells (LY6C^lo monocytes; day 3, flow cytometry, implanted scaffold, blank 12.7±5.7) [%] | LY6Clo monocytes in wound bed (LY6C^lo monocytes; day 3, vs blank scaffolds) | LY6C^lo % of total cells (LY6C^lo monocytes; day 3 post-ONF formation, flow cytometry, implanted scaffold, blank 3.7%±0.9) | Ly6Clo monocytes in the wound bed (LY6C^lo monocytes; during healing, no time point stated, vs blank scaffolds) | ONF wound healing ([1]; day 5, vs blank scaffold) | ONF wound healing ([1]; day 7, vs blank scaffold) | ONF / oral cavity wound healing ([1]; no time point stated, vs blank scaffold) | in vitro release profile [2] | μCT changes to the underlying bone [3]
CCCCCCCCc1ccc(CC[C@](N)(CO)COP(=O)(O)O)cc1 [FTY720-P] | much lower |  |  |  |  |  |  |  |  |  |  |  |  |  |  |  |  |  |  | 
CCCCCCCCc1ccc(CCC(N)(CO)CO)cc1 [FTY720] |  | increased | 3.7±0.5 | 63.6±3.9 | increases the migration | increases the migration | improved wound healing | increases the frequency; also recorded: selectively recruits non-classical Ly6C^lo monocytes; also recorded: significantly increases the proportion; also recorded: recruits AM monocytes | increased vascularity | decreased | increased | 22.5±5.6 | increased | 5.7%±0.6 | increase | wound contracture | complete healing | healing, including reepithelization; also recorded: improved wound healing; also recorded: greater injury healing and ONF prevention | initial burst in the first hours of incubation in vitro, followed by a delay and a second phase of release between 3 and 5 days | did not reveal any changes
